For seven cell lines, relative viability results are on record in the supplement of paper PMC10307832.

Test in all cases: relative viability (nuclei count vs DMSO), 5 days (fraction); higher = more cells survive
Compound in test [1]: C1=CC=C(C(=C1)C2=CC=C(C=C2)C3=CSC4=C3C(=C(C(=O)N4)C#N)O)O + CS(=O)(=O)N1CCN(Cc2cc3nc(-c4cccc5[nH]ncc45)nc(N4CCOCC4)c3s2)CC1 [Pictilisib] (partner 1 µM)
A digest of the protocol:
(§1)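 Lung cancer cell lines were seeded in 1536-well plates and dosed by pin tool the next day, with either a single drug or a fixed anchor-drug dose combined with five library-drug doses (not always all listed) spaced in √10 steps. Five days later, one step fixed the cells and stained their nuclei (final 0.05% Triton X-100, 1% formaldehyde, 1 ug/ml Hoechst), and nuclei were counted on 4× images. Relative viability is the nuclei count in treated wells divided by the count in vehicle wells, and each value is the median of duplicate plates.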

Compound in test [2]: O=C(CCCCCCNC(=O)c1cnc(N(c2ccccc2)c2ccccc2)nc1)NO [Ricolinostat] + C[C@@H](Oc1cc(-c2cnn(C3CCNCC3)c2)cnc1N)c1c(Cl)ccc(F)c1Cl [Crizotinib] (partner 1 µM)
A digest of the protocol:
as §1

Compound in the test “TGX 221 + Olaparib”: CC1=CN2C(=O)C=C(N=C2C(=C1)C(C)NC3=CC=CC=C3)N4CCOCC4 [TGX 221] + O=C(c1cc(Cc2n[nH]c(=O)c3ccccc23)ccc1F)N1CCN(C(=O)C2CC2)CC1 [Olaparib] (partner 8 µM)
A digest of the protocol: as §1

Compound in the test “TGX 221 + Phenformin”: CC1=CN2C(=O)C=C(N=C2C(=C1)C(C)NC3=CC=CC=C3)N4CCOCC4 [TGX 221] + N=C(N)NC(=N)NCCc1ccccc1 [Phenformin] (partner 250 µM)
The gist of the method:
as §1

On to LCLC-103H, for which the relative viability in test [1] (first compound 0.08 µM) came out at 0.544; in test [1] (first compound 0.253 µM), 0.664; in test [1] (first compound 0.8 µM), 0.541; in test [1] (first compound 2.53 µM) it was 0.554; in test [1] (first compound 8 µM) it was 0.576; in test [2] (first compound 0.08 µM), 0.951. Besides, the relative viability came out at 1.02 in test [2] (first compound 0.253 µM); 1.04 in test [2] (first compound 0.8 µM); 1.05 in test [2] (first compound 2.53 µM); 0.747 with TGX 221 + Olaparib (first compound 0.08 µM); 0.738 with TGX 221 + Olaparib (first compound 0.253 µM); 0.793 in the test with TGX 221 + Olaparib (first compound 0.8 µM). Also, the relative viability was found to be 0.764 in the test with TGX 221 + Olaparib (first compound 2.53 µM); 0.717 with TGX 221 + Olaparib (first compound 8 µM); 0.302 with TGX 221 + Phenformin (first compound 0.08 µM); 0.344 with TGX 221 + Phenformin (first compound 0.253 µM); 0.311 in the test with TGX 221 + Phenformin (first compound 0.8 µM); 0.321 with TGX 221 + Phenformin (first compound 2.53 µM). Also, in the test with TGX 221 + Phenformin (first compound 8 µM), the relative viability turned out to be 0.324.

LU99A: the relative viability in test [1] (first compound 0.08 µM) turned out to be 0.283; in test [1] (first compound 0.253 µM), 0.307; in test [1] (first compound 0.8 µM), 0.339; in test [1] (first compound 2.53 µM) it was 0.332; in test [1] (first compound 8 µM) it was 0.295; in test [2] (first compound 0.08 µM), 0.581. Further, the relative viability in test [2] (first compound 0.253 µM) was determined as 0.604; in test [2] (first compound 0.8 µM), 0.38; in test [2] (first compound 2.53 µM), 0.409; with TGX 221 + Olaparib (first compound 0.08 µM), 0.251; with TGX 221 + Olaparib (first compound 0.253 µM) it was 0.258; with TGX 221 + Olaparib (first compound 0.8 µM), 0.297. The relative viability with TGX 221 + Olaparib (first compound 2.53 µM) was 0.251; in the test with TGX 221 + Olaparib (first compound 8 µM) it was 0.249; in the test with TGX 221 + Phenformin (first compound 0.08 µM) it was 0.785; in the test with TGX 221 + Phenformin (first compound 0.253 µM) it was 0.831; with TGX 221 + Phenformin (first compound 0.8 µM), 0.9; with TGX 221 + Phenformin (first compound 2.53 µM), 0.93. Also, in the test with TGX 221 + Phenformin (first compound 8 µM), the relative viability stood at 0.834.

For HCC-44, the relative viability in test [1] (first compound 0.08 µM) came to 0.549; in test [1] (first compound 0.253 µM), 0.717; in test [1] (first compound 0.8 µM), 0.601; in test [1] (first compound 2.53 µM), 0.556; in test [1] (first compound 8 µM), 0.605; in test [2] (first compound 0.08 µM), 0.836. Moreover, the relative viability is 0.753 in test [2] (first compound 0.253 µM); 0.774 in test [2] (first compound 0.8 µM); 0.592 in test [2] (first compound 2.53 µM); 1 in the test with TGX 221 + Olaparib (first compound 0.08 µM); 1.04 in the test with TGX 221 + Olaparib (first compound 0.253 µM); 1.05 in the test with TGX 221 + Olaparib (first compound 0.8 µM). Further, the relative viability with TGX 221 + Olaparib (first compound 2.53 µM) is 1.08; with TGX 221 + Olaparib (first compound 8 µM), 1; with TGX 221 + Phenformin (first compound 0.08 µM) it was 0.157; with TGX 221 + Phenformin (first compound 0.253 µM), 0.212; with TGX 221 + Phenformin (first compound 0.8 µM), 0.212; in the test with TGX 221 + Phenformin (first compound 2.53 µM), 0.201. For the same cell line, the relative viability with TGX 221 + Phenformin (first compound 8 µM) is 0.177.

As to NCI-H2405, the relative viability amounted to 0.379 in test [1] (first compound 0.08 µM); 0.439 in test [1] (first compound 0.253 µM); 0.443 in test [1] (first compound 0.8 µM); 0.436 in test [1] (first compound 2.53 µM); 0.295 in test [1] (first compound 8 µM); 0.735 in test [2] (first compound 0.08 µM). In addition, the relative viability in test [2] (first compound 0.253 µM) is 0.804; in test [2] (first compound 0.8 µM), 0.838; in test [2] (first compound 2.53 µM), 0.876; with TGX 221 + Olaparib (first compound 0.08 µM), 0.803; with TGX 221 + Olaparib (first compound 0.253 µM), 0.886; in the test with TGX 221 + Olaparib (first compound 0.8 µM) it was 0.858. Besides, the relative viability amounted to 0.801 in the test with TGX 221 + Olaparib (first compound 2.53 µM); 0.75 with TGX 221 + Olaparib (first compound 8 µM); 0.386 with TGX 221 + Phenformin (first compound 0.08 µM); 0.405 with TGX 221 + Phenformin (first compound 0.253 µM); 0.379 in the test with TGX 221 + Phenformin (first compound 0.8 µM); 0.44 with TGX 221 + Phenformin (first compound 2.53 µM). The relative viability with TGX 221 + Phenformin (first compound 8 µM) came to 0.338.

On to PC-14, for which the relative viability in test [1] (first compound 0.08 µM) is 0.604; in test [1] (first compound 0.253 µM), 0.674; in test [1] (first compound 0.8 µM), 0.658; in test [1] (first compound 2.53 µM), 0.797; in test [1] (first compound 8 µM), 0.52; in test [2] (first compound 0.08 µM), 0.882. In addition, the relative viability in test [2] (first compound 0.253 µM) turned out to be 0.912; in test [2] (first compound 0.8 µM) it was 0.907; in test [2] (first compound 2.53 µM), 0.761; with TGX 221 + Olaparib (first compound 0.08 µM), 0.249; with TGX 221 + Olaparib (first compound 0.253 µM) it was 0.265; with TGX 221 + Olaparib (first compound 0.8 µM) it was 0.262. For the same cell line, the relative viability with TGX 221 + Olaparib (first compound 2.53 µM) is 0.222; with TGX 221 + Olaparib (first compound 8 µM), 0.252; with TGX 221 + Phenformin (first compound 0.08 µM), 0.502; with TGX 221 + Phenformin (first compound 0.253 µM), 0.543; with TGX 221 + Phenformin (first compound 0.8 µM), 0.556; in the test with TGX 221 + Phenformin (first compound 2.53 µM), 0.638. Further, the relative viability with TGX 221 + Phenformin (first compound 8 µM) was 0.667.

For the cell line COR-L23, the relative viability in test [1] (first compound 0.08 µM) was 0.757; in test [1] (first compound 0.253 µM) it was 0.581; in test [1] (first compound 0.8 µM), 0.813; in test [1] (first compound 2.53 µM), 0.728; in test [1] (first compound 8 µM), 0.575; in test [2] (first compound 0.08 µM), 0.506. Besides, the relative viability came out at 0.545 in test [2] (first compound 0.253 µM); 0.571 in test [2] (first compound 0.8 µM); 0.277 in test [2] (first compound 2.53 µM); 0.368 with TGX 221 + Olaparib (first compound 0.08 µM); 0.326 with TGX 221 + Olaparib (first compound 0.253 µM); 0.405 with TGX 221 + Olaparib (first compound 0.8 µM). Besides, the relative viability with TGX 221 + Olaparib (first compound 2.53 µM) is 0.315; with TGX 221 + Olaparib (first compound 8 µM) it was 0.334; with TGX 221 + Phenformin (first compound 0.08 µM), 0.436; with TGX 221 + Phenformin (first compound 0.253 µM), 0.4; in the test with TGX 221 + Phenformin (first compound 0.8 µM) it was 0.445; in the test with TGX 221 + Phenformin (first compound 2.53 µM) it was 0.485. Also, in the test with TGX 221 + Phenformin (first compound 8 µM), the relative viability stood at 0.457.

For the cell line NCI-H1666, the relative viability in test [1] (first compound 0.08 µM) was 0.321; in test [1] (first compound 0.253 µM), 0.572; in test [1] (first compound 0.8 µM), 0.404; in test [1] (first compound 2.53 µM), 0.29; in test [1] (first compound 8 µM), 0.405; in test [2] (first compound 0.08 µM) it was 0.767. Besides, the relative viability was determined as 1.16 in test [2] (first compound 0.253 µM); 0.944 in test [2] (first compound 0.8 µM); 0.776 in test [2] (first compound 2.53 µM); 0.751 in the test with TGX 221 + Olaparib (first compound 0.08 µM); 0.748 with TGX 221 + Olaparib (first compound 0.253 µM); 0.754 in the test with TGX 221 + Olaparib (first compound 0.8 µM). The relative viability in the test with TGX 221 + Olaparib (first compound 2.53 µM) is 0.727; with TGX 221 + Olaparib (first compound 8 µM) it was 0.774; in the test with TGX 221 + Phenformin (first compound 0.08 µM) it was 0.556; in the test with TGX 221 + Phenformin (first compound 0.253 µM) it was 0.52; in the test with TGX 221 + Phenformin (first compound 0.8 µM), 0.598; with TGX 221 + Phenformin (first compound 2.53 µM), 0.561. Further, in the test with TGX 221 + Phenformin (first compound 8 µM), the relative viability came to 0.529.
